From patent US12318390B2, “Pharmaceutical composition for oral administration comprising aminopyrimidine derivative or its salt” (YUHAN CORPORATION, priority 2018, dated 2025)
≈ marks a conversion by molar mass, not a printed value.

Key:
Solubility test = assay type: physicochemical; conditions: thermodynamic from solid, 37° C.
Experimental: In addition, 100 mg of Lazertinib free-base (prepared in the same manner as the method described in WO 2016/060443) was tested under the same conditions.

[1] = Comparative pharmacokinetic test in normal rats; assay type: in vivo, rats (SD rat)
Description: (§1) Specifically, in the normal rats and the esomeprazole-treated rats, maximum blood concentrations (Cmax) and areas under the blood concentration curve (AUClast) were compared with each other, respectively, to evaluate the absorption of drugs in animals.

[2] = Comparative pharmacokinetic test in esomeprazole-treated rats; assay type: in vivo, rats (SD rat); conditions: for area under the blood concentration curve reduced compared with the normal rats / maximum blood concentration reduced compared with the normal rats: esomeprazole-treated rats vs normal rats
Description: as §1
The results (the maximum blood concentration and the area under the blood concentration curve) of the comparative pharmacokinetic test obtained therefrom were shown in Table 7 and FIGS. 5 and 6.

[3] = Pharmacokinetic test for Lazertinib mesylate and free-base in beagle dogs; assay type: in vivo; conditions: beagle dog
Description: The results (the maximum blood concentration and the area under the blood concentration curve) of the comparative pharmacokinetic test obtained therefrom were shown in Table 8 and FIG. 7.

[4] = Stability test under stressed condition; assay type: physicochemical; conditions: for PXRD pattern: stressed condition 60 ± 2° C., 75 ± 5% RH; for Purity: HPLC
[5] = Stability test under accelerated condition; assay type: physicochemical; conditions: for Purity: HPLC
[6] = esomeprazole-treated rats, oral 30 mg/kg
[7] = stressed condition, Start to 4 weeks
[8] = accelerated condition, 3 months
[9] = accelerated condition, 6 months
[10] = accelerated condition, Start to 6 months
[11] = Normal rat, oral 30 mg/5 mL/kg in 0.5% methyl cellulose
[12] = Esomeprazole-treated rat (5 mg/kg i.v. for 3 days), oral 30 mg/5 mL/kg
[13] = oral 5 mg/2 mL/kg in 0.5% methyl cellulose

With `C=CC(=O)Nc1cc(Nc2nccc(-n3cc(CN(C)C)c(-c4ccccc4)n3)n2)c(OC)cc1N1CCOCC1` [Lazertinib free-base, N-(5-(4-(4-((dimethylamino)methyl)-3-phenyl-1H-pyrazol-1-yl)pirimidine-2-ylamino)-4-methoxy-2-morpholinophenyl)acrylamide] the solubility at 12 h (Solubility test; fassgf or other biorelevant, Artificial gastric juice (FaSSGF)) was 1500 µg/mL (≈ 2700 µM), the solubility at 12 h (Solubility test; organic solvent or mixture, Ethanol) was 599 µg/mL (≈ 1080 µM) and the solubility at 12 h (Solubility test; pH 1.2 buffer solution, simulated gastric fluid, pH 1.2 buffer) was 4400 µg/mL (≈ 7930 µM). The solubility at 12 h (Solubility test; pH 2.0 buffer solution, simulated gastric fluid, pH 2.0 buffer) was 3700 µg/mL (≈ 6670 µM), the solubility at 12 h (Solubility test; pH 3.0 buffer solution, aqueous buffer, pH 3.0 buffer) was 1900 µg/mL (≈ 3430 µM) and the solubility at 12 h (Solubility test; pH 4.0 buffer solution, aqueous buffer, pH 4.0 buffer) was 1000 µg/mL (≈ 1800 µM). The solubility at 12 h (Solubility test; pH 5.0 buffer solution, aqueous buffer, pH 5.0 buffer) was 10 µg/mL (≈ 18 µM), the solubility at 12 h (Solubility test; pH 6.0 buffer solution, aqueous buffer, pH 6.0 buffer) was 3 µg/mL (≈ 5.41 µM) and the solubility at 12 h (Solubility test; pH 7.0 buffer solution, aqueous buffer, pH 7.0 buffer) was 1 µg/mL (≈ 1.8 µM). For the same compound, the solubility at 12 h (Solubility test; Artificial intestinal fluid (FaSSIF)) was 27 µg/mL (≈ 48.7 µM), the solubility at 12 h (Solubility test; water) was 1 µg/mL (≈ 1.8 µM) and the AUC(0-t) ([1]; male, SD, blood, 30 mg/kg, Normal rat, oral 30 mg/5 mL/kg in 0.5% methyl cellulose, read-out: Area under the blood concentration curve (AUClast)) was 7290 ng·h/mL. The Cmax ([1]; male, SD, blood, 30 mg/kg, Normal rat, oral 30 mg/5 mL/kg in 0.5% methyl cellulose, read-out: Maximum blood concentration (Cmax)) was 726 ng/mL, the “area under the blood concentration curve lower than Lazertinib mesylate” value ([1]; normal rats, oral 30 mg/kg) was 10.4% and the “maximum blood concentration lower than Lazertinib mesylate” value ([1]; normal rats, oral 30 mg/kg) was 11.0%. The “area under the blood concentration curve reduced compared with the normal rats” value [2] was 63.8%, the “maximum blood concentration reduced compared with the normal rats” value [2] was 69.3% and the “area under the blood concentration curve lower than Lazertinib mesylate” value [2, 6] was 49.4%. The “maximum blood concentration lower than Lazertinib mesylate” value [2, 6] was 47.8%, the AUC(0-t) ([2]; male, SD, blood, Esomeprazole-treated rat (i.v. for 3 days), oral 30 mg/5 mL/kg, read-out: Area under the blood concentration curve (AUClast)) was 2640 ng·h/mL and the Cmax ([2]; male, SD, blood, Esomeprazole-treated rat (i.v. for 3 days), oral 30 mg/5 mL/kg, read-out: Maximum blood concentration (Cmax)) was 223 ng/mL. The “area under the blood concentration curve lower than Lazertinib mesylate” value ([3]; oral 5 mg/kg) was 50.4%, the “maximum blood concentration lower than Lazertinib mesylate” value ([3]; oral 5 mg/kg) was 40.1% and the AUC(0-t) ([3]; male, blood, 5 mg/kg, oral 5 mg/2 mL/kg in 0.5% methyl cellulose, read-out: Area under the blood concentration curve (AUClast)) was 379 ng·h/mL. It also gave a Cmax ([3]; male, blood, 5 mg/kg, oral 5 mg/2 mL/kg in 0.5% methyl cellulose, read-out: Maximum blood concentration (Cmax)) of 80.7 ng/mL.

For “mesylic acid salt of N-(5-(4-(4-((dimethylamino)methyl)-3-phenyl-1H-pyrazol-1-yl)pirimidine-2-ylamino)-4-methoxy-2-morpholinophenyl)acrylamide [Lazertinib mesylate]”, the PXRD pattern ([4]; 2 weeks) was “Same”, the PXRD pattern ([4]; 4 weeks) was “Same” and the “Appearance (color)” value ([4]; stressed condition, 2 weeks) was “White”. The Content ([4]; stressed condition, 2 weeks) was 97.7%, the “DSC Onset” value ([4]; stressed condition, 2 weeks) was 214 °C and the “Water Content” value ([4]; stressed condition, 2 weeks) was 2.71%. The Purity ([4]; stressed condition, 2 weeks) was 99.3%, the “Appearance (color)” value ([4]; stressed condition, 4 weeks) was “White” and the Content ([4]; stressed condition, 4 weeks) was 98.9%. For the same compound, the “DSC Onset” value ([4]; stressed condition, 4 weeks) was 214 °C, the “Water Content” value ([4]; stressed condition, 4 weeks) was 2.70% and the Purity ([4]; stressed condition, 4 weeks) was 99.3%. For the same compound, the “Appearance (color)” value ([4]; stressed condition, Start) was “White”, the Content ([4]; stressed condition, Start) was 98.8% and the “DSC Onset” value ([4]; stressed condition, Start) was 214 °C. For the same compound, the “Water Content” value ([4]; stressed condition, Start) was 2.48%, the “Content Variation” value [4, 7] was “+0.1%” and the “Purity Variation” value [4, 7] was “+0.1%”. For the same compound, the “Water Content Variation” value [4, 7] was “+0.22%”, the Purity ([4]; stressed condition, Start) was 99.2% and the PXRD pattern ([5]; accelerated condition 40 ± 2° C., 75 ± 5% RH, 1 month) was “Same”. For the same compound, the “Appearance (color)” value ([5]; accelerated condition, 1 month) was “White”, the Content ([5]; accelerated condition, 1 month) was 98.9% and the “DSC Onset” value ([5]; accelerated condition, 1 month) was 214 °C. For the same compound, the “Water Content” value ([5]; accelerated condition, 1 month) was 2.73%, the Purity ([5]; accelerated condition, 1 month) was 99.3% and the “Appearance (color)” value [5, 8] was “White”. For the same compound, the Content [5, 8] was 98.9%, the “DSC Onset” value [5, 8] was 214 °C and the PXRD pattern [5, 8] was “Same”. The “Water Content” value [5, 8] was 3.19%, the Purity [5, 8] was 99.3% and the “Appearance (color)” value [5, 9] was “White”. The Content [5, 9] was 99.1%, the “DSC Onset” value [5, 9] was 214 °C and the PXRD pattern [5, 9] was “Same”. The “Water Content” value [5, 9] was 3.01%, the Purity [5, 9] was 99.3% and the “Appearance (color)” value ([5]; accelerated condition, Start) was “White”. The Content ([5]; accelerated condition, Start) was 98.8%, the “DSC Onset” value ([5]; accelerated condition, Start) was 214 °C and the “Water Content” value ([5]; accelerated condition, Start) was 2.48%. The “Content Variation” value [5, 10] was “+0.3%”, the “Purity Variation” value [5, 10] was “+0.1%” and the “Water Content Variation” value [5, 10] was “+0.53%”. For the same compound, the Purity ([5]; accelerated condition, Start) was 99.2%, the “Area under the blood concentration curve (AUClast)” value (from here on “Area … (AUClast)”) [1, 11] was 8139.0 ng·h/mL and the “Maximum blood concentration (Cmax)” value [1, 11] was 815.6 ng/mL. For the same compound, the “Area … (AUClast)” value [2, 12] was 5210.9 ng·h/mL, the “Maximum blood concentration (Cmax)” value [2, 12] was 427.5 ng/mL and the “area under the blood concentration curve reduced compared with the normal rats” value [2] was 36.0%. For the same compound, the “maximum blood concentration reduced compared with the normal rats” value [2] was 47.6%, the “Area … (AUClast)” value [3, 13] was 811.5 ng·h/mL and the “Maximum blood concentration (Cmax)” value [3, 13] was 134.7 ng/mL.
